The values below come from patent publication EP0484785B1, “Use of xanthines for the preparation of a medicament effective for inhibiting the replication of human retroviruses” (HOECHST-ROUSSEL PHARMACEUTICALS INCORPORATED, priority 1990, dated 1992).

For data set [1], the system named is Jurkat cells. It is filed as cell-based. The conditions noted are these: human, 7 days. Here is the method: (§1) Human Jurkat cells (a CD4⁺ T-cell lymphoma line) were grown in RPMI-1640 supplemented with 10% fetal calf serum, penicillin, streptomycin and L-glutamine. HIV-1 was produced in Jurkat cells. During the log phase of growth, cell-free supernatant was harvested, tested for RT activity (according to the method of Dayton et al., Cell 1986, 44:941-947) and frozen in aliquots at -70°C until use. Jurkat cells were pretreated with pentoxifylline at various concentrations for 4 hours after which HIV-1 (10⁴ cpm units of RT activity) was added to the cultures. The cells remained in the appropriate concentration of pentoxifylline for a total of 7 days, at which point the RT activity was measured in cell-free supernatants. In parallel, cell viability was tested by trypan blue staining of uninfected Jurkat cells treated for 7 days with various concentrations of pentoxifylline. The results are expressed as a percent of control.

The test system of data set [2] is peripheral blood mononuclear cells (PBM). It is filed as cell-based. The conditions noted are these: human, 7 days. Here is the method:
(§2) Human peripheral blood mononuclear cells (PBM) were obtained by Ficoll-Hypaque gradient centrifugation of blood donated by normal HIV-1 sero-negative individuals. PBM were cultured in RPMI-1640 supplemented with 20% fetal calf serum, penicillin, streptomycin and L-glutamine. After stimulating cells overnight with 15 µg/ml of concanavalin A, they were maintained in 10 units/ml interleukin-2 (IL-2) for the duration of the assay. To test for the inhibition of HIV-1 replication in PBM by pentoxifylline, PBM were pretreated with various concentrations of pentoxifylline for 4 hours after which HIV-1 (10⁴ cpm units of RT activity) was added to the cultures. The cells remained in the appropriate concentrations of the drug for a total of 7 days at which point the RT activity was measured in cell-free supernatants. In parallel, the cytotoxicity was analyzed by trypan blue staining of uninfected PBM treated for 7 days with various concentrations of pentoxifylline. The results are expressed as percent of untreated controls.

Data set [3] relates to HIV-1. In words: HIV-1 replication in acutely infected Jurkat cells, reverse transcriptase activity in cell-free supernatants. The conditions noted are these: for Reverse Transcriptase (% control): Jurkat cells, 4 h pretreatment, 7 days. The format is cell-based. Here is the method:
as §1

The subject of data set [4] is HIV-1. In words: HIV-1 replication in acutely infected peripheral blood mononuclear cells, reverse transcriptase activity in cell-free supernatants. It is filed as cell-based. The note with it: for Reverse Transcriptase (% control): PBM, 4 h pretreatment, 7 days. Here is the method: as §2
Data set [5] concerns HIV-1 LTR. In words: HIV-1 LTR-mediated gene expression, CAT activity in U38 cells. It is filed as cell-based, human. The arrangement: CAT activity: unit not given here. The conditions noted are these: for CAT activity: 2 days. Here is the method: Down-regulation of gene expression mediated by the HIV-1 LTR: U38 cells (Felber BK, Pavlakis GN. Science 1988, 239:184-187) were cultured in the presence or absence of 10 ng/ml phorbol-12-myristate-13-acetate (PMA). U38 cells were derived from the monocytoid human cell line U937 and contain integrated copies of the HIV-1 LTR ligated to the chloramphenicol acetyl transferase (CAT) gene. These cells have been kindly provided by Dr. Barbara Felber (National Cancer Institute, Frederick, Maryland, USA). Two hours later, the cells were washed once in phosphate-buffered saline (PBS) and cultured in the presence of various concentrations of pentoxifylline. After 2 days, cell viability was tested by trypan blue staining, and the activity of CAT was measured as described previously (Sodroski, J. et al., Science 1985, 227:171-173) after standardizing the cell extracts for protein content.

Like-named read-outs stand apart in the source and are kept apart here.

The compound `CC(=O)CCCCn1c(=O)c2c(ncn2C)n(C)c1=O` [Pentoxifylline, pentoxifylline] gave a Cell viability in data set [1] above 95%. Also, the “Viability (% control)” value in data set [2] (50 micromolar) turned out to be 93.5 % control; in data set [2] (500 micromolar), 84.8 % control; in data set [2] (1000 micromolar), 50.0 % control. The “HIV-1 replication as measured by reverse transcriptase activity” value in data set [3] (Jurkat cells acutely infected with HIV) and in data set [4] (peripheral blood mononuclear cells acutely infected with HIV-1) was “decreased” throughout. In addition, the “Reverse Transcriptase (% control)” value in data set [3] (pentoxifylline 50 micromolar) stood at 84.6 % control; in data set [3] (pentoxifylline 100 micromolar) it was 72.9 % control; in data set [3] (pentoxifylline 500 micromolar) it was 69.5 % control; in data set [3] (pentoxifylline 1000 micromolar) it was 55.0 % control; in data set [4] (pentoxifylline 25 micromolar), 75.5 % control; in data set [4] (pentoxifylline 50 micromolar) it was 72.9 % control. The “Reverse Transcriptase (% control)” value in data set [4] (pentoxifylline 250 micromolar) is 30.0 % control; in data set [4] (pentoxifylline 500 micromolar), 22.7 % control; in data set [4] (pentoxifylline 1000 micromolar), 18.6 % control. Moreover, the CAT activity in data set [5] (Phorbol ester-non-stimulated, pentoxifylline 50 micromolar) is recorded as 4.91; in data set [5] (Phorbol ester-non-stimulated, pentoxifylline 100 micromolar), 3.75; in data set [5] (Phorbol ester-non-stimulated, pentoxifylline 500 micromolar), 2.95; in data set [5] (Phorbol ester-non-stimulated, pentoxifylline 1000 micromolar), 2.81; in data set [5] (Phorbol ester-stimulated (10 ng/ml PMA), pentoxifylline 50 micromolar), 50.4; in data set [5] (Phorbol ester-stimulated (10 ng/ml PMA), pentoxifylline 100 micromolar), 23.9. The CAT activity in data set [5] (Phorbol ester-stimulated (10 ng/ml PMA), pentoxifylline 500 micromolar) was determined as 20.3; in data set [5] (Phorbol ester-stimulated (10 ng/ml PMA), pentoxifylline 1000 micromolar) it was 19.5. In addition, the “chloramphenicol transacetylase activity (CAT)” value in data set [5] (U38 cells, whether or not first pretreated with phorbol ester) is reported as “decreased”.
